Here are results for nine compounds from the NIST ThermoML archive (doi:10.1021/je500450w).

± gives the expanded uncertainty stated by the source.

The conditions of this series: 101 kPa, Liquid mixture 1.

For `c1ccccc1` [benzene] + O, the interfacial tension (293.2 K, Drop weight) is recorded as 34.82 ± 0.33 mN/m; the interfacial tension (298.2 K, Drop weight) is listed as 34.06 ± 0.33 mN/m; the interfacial tension (303.2 K, Drop weight) worked out at 33.64 ± 0.32 mN/m; the interfacial tension (308.2 K, Drop weight) stood at 32.87 ± 0.32 mN/m; the interfacial tension (313.2 K, Drop weight) turned out to be 32.1 ± 0.31 mN/m; the interfacial tension (318.2 K, Drop weight) was found to be 31.62 ± 0.31 mN/m. Also, the interfacial tension by setting is: (323.2 K, Drop weight) 30.95 ± 0.3 mN/m; (328.2 K, Drop weight) 30.92 ± 0.3 mN/m; (333.2 K, Drop weight) 30.52 ± 0.3 mN/m.

With `CCCCCCCO` [heptan-1-ol] + O, the interfacial tension (293.2 K, Drop weight) was 6.37 ± 0.12 mN/m; the interfacial tension (298.2 K, Drop weight) turned out to be 6.44 ± 0.12 mN/m; the interfacial tension (303.2 K, Drop weight) turned out to be 6.52 ± 0.12 mN/m; the interfacial tension (313.2 K, Drop weight) is 6.6 ± 0.12 mN/m; the interfacial tension (323.2 K, Drop weight) stood at 6.62 ± 0.12 mN/m; the interfacial tension (333.2 K, Drop weight) amounted to 6.58 ± 0.12 mN/m. Moreover, the interfacial tension (343.2 K, Drop weight) was found to be 6.46 ± 0.12 mN/m.

Regarding `CCCCCCC` [heptane] + O, the interfacial tension is listed as 51.3 ± 0.46 mN/m (293.2 K, Drop weight); 50.87 ± 0.46 mN/m (298.2 K, Drop weight); 50.35 ± 0.45 mN/m (303.2 K, Drop weight); 49.84 ± 0.45 mN/m (308.2 K, Drop weight); 49.6 ± 0.45 mN/m (313.2 K, Drop weight); 49 ± 0.44 mN/m (318.2 K, Drop weight). For the same compound, the interfacial tension (323.2 K, Drop weight) worked out at 48.54 ± 0.44 mN/m; the interfacial tension (328.2 K, Drop weight) is recorded as 48.1 ± 0.44 mN/m; the interfacial tension (333.2 K, Drop weight) came to 47.73 ± 0.43 mN/m; the interfacial tension (338.2 K, Drop weight) came to 47.28 ± 0.43 mN/m; the interfacial tension (343.2 K, Drop weight) turned out to be 46.7 ± 0.42 mN/m.

In the case of `CCCCCCO` [hexan-1-ol] + O, the interfacial tension reads like this: (293.2 K, Drop weight) 7.37 ± 0.12 mN/m; (298.2 K, Drop weight) 7.49 ± 0.13 mN/m; (303.2 K, Drop weight) 7.6 ± 0.13 mN/m; (313.2 K, Drop weight) 7.7 ± 0.13 mN/m; (323.2 K, Drop weight) 7.86 ± 0.13 mN/m; (333.2 K, Drop weight) 7.9 ± 0.13 mN/m. Moreover, the interfacial tension (343.2 K, Drop weight) was 7.87 ± 0.13 mN/m.

Consider `CCCCCC` [hexane] + O, for which the interfacial tension (293.2 K, Drop weight) was 50.81 ± 0.46 mN/m; the interfacial tension (298.2 K, Drop weight) is given as 50.49 ± 0.45 mN/m; the interfacial tension (303.2 K, Drop weight) is 50.11 ± 0.45 mN/m; the interfacial tension (308.2 K, Drop weight) is 49.68 ± 0.45 mN/m; the interfacial tension (313.2 K, Drop weight) is listed as 49.28 ± 0.44 mN/m; the interfacial tension (318.2 K, Drop weight) stood at 48.84 ± 0.44 mN/m. Moreover, the interfacial tension by setting is: (323.2 K, Drop weight) 48.46 ± 0.44 mN/m; (328.2 K, Drop weight) 47.94 ± 0.43 mN/m; (333.2 K, Drop weight) 46.92 ± 0.43 mN/m.

Consider `CCCCCCCCCO` [nonan-1-ol] + O, for which the interfacial tension (293.2 K) is recorded as 8.18 ± 0.25 mN/m; the interfacial tension (298.2 K) is 8.48 ± 0.26 mN/m; the interfacial tension (303.2 K) came out at 9 ± 0.26 mN/m; the interfacial tension (313.2 K) is 9.15 ± 0.27 mN/m; the interfacial tension (323.2 K) worked out at 9.86 ± 0.28 mN/m; the interfacial tension (333.2 K) is 9.67 ± 0.27 mN/m. For the same compound, the interfacial tension (343.2 K) worked out at 9.72 ± 0.27 mN/m.

`CCCCCCCCC` [nonane] + O: the interfacial tension (293.2 K, Drop weight) came to 51.95 ± 0.46 mN/m; the interfacial tension (298.2 K, Drop weight) is recorded as 51.54 ± 0.46 mN/m; the interfacial tension (303.2 K, Drop weight) is 51.11 ± 0.46 mN/m; the interfacial tension (308.2 K, Drop weight) is recorded as 50.68 ± 0.46 mN/m; the interfacial tension (313.2 K, Drop weight) was found to be 50.23 ± 0.45 mN/m; the interfacial tension (318.2 K, Drop weight) was found to be 49.63 ± 0.45 mN/m. The interfacial tension worked out at 49.09 ± 0.44 mN/m (323.2 K, Drop weight); 48.46 ± 0.44 mN/m (328.2 K, Drop weight); 48.03 ± 0.43 mN/m (333.2 K, Drop weight); 47.61 ± 0.43 mN/m (338.2 K, Drop weight); 46.96 ± 0.43 mN/m (343.2 K, Drop weight).

As to `CCCCCCCCO` [octan-1-ol] + O, the interfacial tension is given as 8.02 ± 0.13 mN/m (293.2 K, Drop weight); 8.19 ± 0.13 mN/m (298.2 K, Drop weight); 8.42 ± 0.13 mN/m (303.2 K, Drop weight); 8.62 ± 0.13 mN/m (313.2 K, Drop weight); 8.83 ± 0.13 mN/m (323.2 K, Drop weight); 9.02 ± 0.13 mN/m (333.2 K, Drop weight). Moreover, where the note is “343.2 K, Drop weight”, the interfacial tension is recorded as 9.02 ± 0.13 mN/m.

Take `CCCCCCCC` [octane] + O: the interfacial tension runs as follows: (293.2 K, Drop weight) 51.67 ± 0.46 mN/m; (298.2 K, Drop weight) 51.2 ± 0.46 mN/m; (303.2 K, Drop weight) 50.78 ± 0.46 mN/m; (308.2 K, Drop weight) 50.28 ± 0.45 mN/m; (313.2 K, Drop weight) 49.9 ± 0.45 mN/m; (318.2 K, Drop weight) 49.31 ± 0.44 mN/m. Besides, the interfacial tension reads like this: (323.2 K, Drop weight) 48.86 ± 0.44 mN/m; (328.2 K, Drop weight) 48.34 ± 0.44 mN/m; (333.2 K, Drop weight) 47.81 ± 0.43 mN/m; (338.2 K, Drop weight) 47.33 ± 0.43 mN/m; (343.2 K, Drop weight) 46.82 ± 0.43 mN/m.
